Data published in patent US11001590B2, “Pyrazolopyrimidine derivatives” (BAYER ANIMAL HEALTH GMBH, priority 2016, dated 2021).

What was measured:
[1] = system: Nippostrongylus brasiliensis; assay: In vitro assay 2: Nippostrongylus brasiliensis (NIPOBR), acetylcholine esterase readout; conditions: adult worms, read-out: activity (reduction of AChE compared to negative control); for inhibition at 10 µg/mL: 10 μg/ml (10 ppm); for inhibition at 1 µg/mL: 1 μg/ml (1 ppm)
Protocol: In Vitro Assay 2: Nippostronqylus Brasiliensis (NIPOBR)
Adult Nippostrongylus brasiliensis were washed with saline buffer containing 100 U/ml penicillin, 0.1 mg/ml streptomycin and 2.5 μg/ml amphotericin B. Test compounds were dissolved in DMSO and worms were incubated in medium in a final concentration of 10 μg/ml (10 ppm) respectively 1 μg/ml (1 ppm). An aliquot of the medium was used to determine the acetylcholine esterase activity in comparison to a negative control. The principle of measuring acetylcholine esterase as readout for anthelmintic activity was described in Rapson et al (1986) and Rapson et al (1987).

[2] = system: Dirofilaria immitis microfilariae; assay: In vitro assay 3: Dirofilaria immitis microfilariae (DIROIM L1), motility; conditions: 72 h, reduction of motility vs negative control, 72 h incubation
[3] = system: Dirofilaria immitis third-stage larvae; assay: In vitro assay 4: Dirofilaria immitis (DIROIM L4), motility of larvae; conditions: 72 h
[4] = system: Litomosoides sigmodontis third-stage larvae; assay: In vitro assay 7: Litomosoides sigmodontis L3 (LTMOSI), motility; conditions: 72 h, reduction of motility vs negative control, 72 h incubation
Protocol: In Vitro Assay 7: Litomosoides Siqmodontis L3 (LTMOSI)
10 Litomosoides sigmodontis third-stage larvae, which were freshly isolated from the pleural cavity of an infected rodent, were added to wells of a microtitre plate containing a nutrient medium and the test compound in DMSO. Compounds were tested in concentration-response assay in duplicate. Larvae exposed to DMSO and no test compounds were used as negative controls. Larvae were evaluated after 72 h of incubation with the compound. Efficacy was determined as the reduction of motility in comparison to the negative control. Based on the evaluation of a wide concentration range, concentration-response curves as well as ECso-values were calculated.

[5] = log P by HPLC on reversed phase columns (Method L0; [a] acidic, [b] neutral range)
Protocol: Calibration was done with straight-chain alkan-2-ones (with 3 to 16 carbon atoms) with known log P values (measurement of log P values using retention times with linear interpolation between successive alkanones). Lambda-max-values were determined using UV-spectra from 200 nm to 400 nm and the peak values of the chromatographic signals.

C. elegans Slo-1a = C. elegans Slo-1a (Caenorhabditis elegans, UniProt Q95V25); assay: In vitro assay 1: C. elegans Slo-1a, action at a recombinant C. elegans CHO cell line (membrane potential measurement)
C. elegans Slo-1a, sequence (Q95V25 whole entry): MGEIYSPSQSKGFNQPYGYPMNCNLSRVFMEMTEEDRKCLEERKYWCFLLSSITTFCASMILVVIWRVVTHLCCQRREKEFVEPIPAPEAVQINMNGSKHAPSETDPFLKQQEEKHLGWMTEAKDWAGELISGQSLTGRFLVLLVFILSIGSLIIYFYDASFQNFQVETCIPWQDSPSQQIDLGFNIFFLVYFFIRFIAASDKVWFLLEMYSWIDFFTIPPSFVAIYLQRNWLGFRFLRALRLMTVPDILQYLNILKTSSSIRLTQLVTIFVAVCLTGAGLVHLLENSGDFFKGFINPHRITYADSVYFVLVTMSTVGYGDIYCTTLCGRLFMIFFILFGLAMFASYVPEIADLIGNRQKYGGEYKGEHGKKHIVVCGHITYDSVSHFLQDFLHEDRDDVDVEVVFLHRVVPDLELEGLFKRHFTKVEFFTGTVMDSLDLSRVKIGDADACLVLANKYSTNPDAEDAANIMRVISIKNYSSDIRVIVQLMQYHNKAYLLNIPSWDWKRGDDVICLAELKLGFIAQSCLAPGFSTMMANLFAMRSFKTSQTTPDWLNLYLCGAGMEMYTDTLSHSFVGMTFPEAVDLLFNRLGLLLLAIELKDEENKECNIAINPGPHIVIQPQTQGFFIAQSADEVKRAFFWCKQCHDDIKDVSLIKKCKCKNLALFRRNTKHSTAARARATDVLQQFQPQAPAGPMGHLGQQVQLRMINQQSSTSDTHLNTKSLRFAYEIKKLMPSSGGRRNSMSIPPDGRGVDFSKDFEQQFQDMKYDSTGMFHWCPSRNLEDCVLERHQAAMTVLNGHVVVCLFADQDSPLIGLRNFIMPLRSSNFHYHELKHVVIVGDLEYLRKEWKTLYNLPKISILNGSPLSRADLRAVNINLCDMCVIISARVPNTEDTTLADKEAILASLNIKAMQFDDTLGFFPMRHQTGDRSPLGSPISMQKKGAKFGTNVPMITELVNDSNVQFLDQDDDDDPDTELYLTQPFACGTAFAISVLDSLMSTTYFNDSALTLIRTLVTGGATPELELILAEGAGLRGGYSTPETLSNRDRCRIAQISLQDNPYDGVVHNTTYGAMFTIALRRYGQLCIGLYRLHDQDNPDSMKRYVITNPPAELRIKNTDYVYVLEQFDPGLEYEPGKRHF

| SMILES | inhibition at 10 µg/mL [1] | EC50 [2] | EC50 [3] | EC50 [4] | chromatographic logP [5] | EC50 (C. elegans Slo-1a) | inhibition at 1 µg/mL [1] |
| --- | --- | --- | --- | --- | --- | --- | --- |
| Cc1nn2c(C(C)C)c(C(=O)N[C@H]3CCOc4ccccc43)cnc2c1-c1c(F)cccc1F [Example 96] | > 80% | < 0.1 µg/mL | < 0.1 µg/mL | < 0.1 µg/mL | 4.13 | 3.98 nM | – |
| Cc1nn2c(C(C)C)c(C(=O)N[C@H]3CCc4ccccc43)cnc2c1-c1cc(Cl)c(F)c(Cl)c1 [Example 127] | > 80% | < 0.1 µg/mL | < 0.1 µg/mL | < 0.1 µg/mL | 5.91 | 10 nM | – |
| Cc1nn2c(C(C)C)c(C(=O)N[C@H]3CCCc4ccccc43)cnc2c1-c1cc(Cl)c(F)c(Cl)c1 [Example 128] | > 80% | < 0.1 µg/mL | < 0.1 µg/mL | < 0.1 µg/mL | 6.26 | 12.6 nM | – |
| Cc1nn2c(C(C)C)c(C(=O)N[C@H]3CCOc4ccccc43)cnc2c1-c1c(F)cccc1Cl [Example 130] | > 80% | < 0.1 µg/mL | < 0.1 µg/mL | < 0.1 µg/mL | 4.44 | 3.98 nM | – |
| Cc1nn2c(C(C)C)c(C(=O)N[C@H]3CCOc4ccccc43)cnc2c1-c1cccc(F)c1F [Example 136] | > 80% | < 0.1 µg/mL | < 0.1 µg/mL | < 0.1 µg/mL | 4.34 | 6.31 nM | > 80% |
| Cc1nn2c(C(C)C)c(C(=O)N[C@H]3CCc4ccccc43)cnc2c1-c1cccc(F)c1F [Example 141] | > 80% | < 0.1 µg/mL | < 0.1 µg/mL | < 0.1 µg/mL | 4.6 | 7.94 nM | – |
| Cc1nn2c(C(C)C)c(C(=O)N[C@H]3CCOc4ccccc43)cnc2c1-c1cc(Cl)cc(Cl)c1 [Example 152] | > 80% | < 0.1 µg/mL | < 1 µg/mL | < 0.1 µg/mL | 5.84 | 20 nM | > 80% |
| Cc1nn2c(C(C)C)c(C(=O)N[C@H]3CCOc4ccccc43)cnc2c1-c1ccc(F)c(F)c1F [Example 166] | > 80% | < 0.1 µg/mL | < 0.1 µg/mL | < 0.1 µg/mL | 4.54 | 1.58 nM | – |
| Cc1nn2c(C(C)C)c(C(=O)N[C@H]3CCOc4ccccc43)cnc2c1-c1cccc(OC(C)C)c1F [Example 188] | > 80% | < 1 µg/mL | – | – | 4.79 | 12.6 nM | – |
| Cc1nn2c(C(C)C)c(C(=O)N[C@H]3CCOc4ccccc43)cnc2c1-c1ccc(Br)cc1 [Example 206] | > 80% | < 1 µg/mL | – | – | 5.02 | 12.6 nM | – |
| Cc1nn2c(C(C)C)c(C(=O)N[C@H]3CCc4ccccc43)cnc2c1-c1ncc(Cl)cc1Cl [Example 209] | > 80% | < 0.1 µg/mL | < 0.1 µg/mL | – | 4.51 | 1.26 nM | > 80% |
| CC(C)c1c(C(=O)N[C@H]2CCOc3ccccc32)cnc2c(-c3cc(Cl)cc(Cl)c3)c(S(C)(=O)=O)nn12 [Example 219] | > 80% | < 1 µg/mL | – | – | 4.16 | 20 nM | – |
| COc1ccc(-c2c(C)nn3c(C(C)C)c(C(=O)N[C@H]4CCOc5ccccc54)cnc23)cc1OC [Example 242] | > 80% | < 10 µg/mL | – | – | 3.9 | 79.4 nM | – |
| Cc1nn2c(C(C)C)c(C(=O)N[C@H]3CCOc4ccccc43)cnc2c1-c1cccc2c1OC(F)(F)O2 [Example 257] | > 80% | < 0.1 µg/mL | – | – | 4.87 | 6.31 nM | – |
| Cc1nn2c(C(C)C)c(C(=O)N[C@H]3CCOc4ccccc43)cnc2c1-c1ccc(F)c2c1OCO2 [Example 263] | > 80% | < 0.1 µg/mL | < 0.1 µg/mL | – | 4.13 | 1.58 nM | > 80% |
| Cc1nn2c(C(C)C)c(C(=O)N[C@H]3CCCc4ccccc43)cnc2c1-c1cc(Cl)cc(Cl)c1F [Example 265] | > 80% | < 1 µg/mL | – | – | 6.01 | 2.51 nM | – |
| Cc1nn2c(C(C)C)c(C(=O)N[C@H]3CCc4ccccc43)cnc2c1-c1ccc(F)c(C(F)(F)F)c1 [Example 294] | > 80% | < 10 µg/mL | – | – | 5.36 | 50.1 nM | – |
| CCn1cc(-c2c(C)nn3c(C(C)C)c(C(=O)N[C@H]4CCc5ccccc54)cnc23)cn1 [Example 374] | > 80% | < 10 µg/mL | – | – | 3.44 | 50.1 nM | – |

| SMILES | inhibition at 10 µg/mL [1] | EC50 [2] | EC50 [3] | EC50 [4] | chromatographic logP [5] | EC50 (C. elegans Slo-1a) | inhibition at 1 µg/mL [1] |
| --- | --- | --- | --- | --- | --- | --- | --- |
| Cc1nn2c(C(C)C)c(C(=O)N[C@H]3CCc4ccccc43)cnc2c1-c1cnn(CC2CC2)c1 [Example 376] | > 80% | < 10 µg/mL | – | – | 3.83 | 7.94 nM | – |
| Cc1nn2c(C(C)C)c(C(=O)N[C@H]3CCc4ccccc43)cnc2c1-c1cnn(CC(F)F)c1 [Example 377] | > 80% | < 10 µg/mL | – | – | 3.49 | 15.8 nM | – |
| COCc1cccc(-c2c(C)nn3c(C(C)C)c(C(=O)N[C@H]4CCOc5ccccc54)cnc23)c1 [Example 392] | > 80% | < 0.1 µg/mL | – | – | 4.16 | 10 nM | – |
| Cc1nn2c(C(C)C)c(C(=O)N[C@H]3CCOc4ccccc43)cnc2c1-c1cccc(N(C)C)c1 [Example 393] | > 80% | < 0.1 µg/mL | – | – | 3.64 | 10 nM | – |
| Cc1nn2c(C(C)C)c(C(=O)N[C@H]3CCOc4ccccc43)cnc2c1-c1cnn(CC2CC2)c1 [Example 419] | > 80% | < 10 µg/mL | – | – | 3.59 | 7.94 nM | – |
| Cc1nn2c(C3CC3)c(C(=O)N[C@H]3CCc4ccccc43)cnc2c1-c1c(F)ccc(F)c1F [Example 437] | – | < 0.1 µg/mL | < 0.1 µg/mL | < 0.1 µg/mL | 3.83 | 1.58 nM | – |
| Cc1nn2c(C3CC3)c(C(=O)N[C@H]3CCc4ccccc43)cnc2c1-c1c(F)cc(F)cc1F [Example 438] | – | < 0.1 µg/mL | < 0.1 µg/mL | < 0.1 µg/mL | 3.87 | 1.26 nM | – |
| Cc1nn2c(C(C)C)c(C(=O)N[C@H]3CCOc4ccccc43)cnc2c1-c1cccc(N2CC(F)(F)C2)c1 [Example 440] | > 80% | < 1 µg/mL | – | – | 4.64 | 12.6 nM | – |
| COCc1cccc(-c2c(C)nn3c(C4CC4)c(C(=O)N[C@H]4CCOc5ccccc54)cnc23)c1 [Example 451] | > 80% | < 1 µg/mL | – | – | 3.43 | 7.94 nM | – |
| Cc1nn2c(C3CC3)c(C(=O)N[C@H]3CCOc4ccccc43)cnc2c1-c1ccccc1Cl [Example 452] | – | < 0.1 µg/mL | < 0.1 µg/mL | < 0.1 µg/mL | 3.64 | 2.51 nM | – |
| Cc1nn2c(C3CC3)c(C(=O)N[C@H]3CCOc4ccccc43)cnc2c1-c1cccc(F)c1F [Example 457] | – | < 0.1 µg/mL | < 0.1 µg/mL | < 0.1 µg/mL | 3.61 | 1.26 nM | – |
| Cc1nn2c(C3CC3)c(C(=O)N[C@H]3CCOc4ccccc43)cnc2c1-c1c(F)cccc1Cl [Example 458] | – | < 0.1 µg/mL | < 0.1 µg/mL | < 0.1 µg/mL | 3.65 | 1.58 nM | – |
| Cc1nn2c(C(C)C)c(C(=O)N[C@H]3CCOc4ccccc43)cnc2c1-c1cccc(N2CC(F)C2)c1 [Example 459] | > 80% | < 1 µg/mL | – | – | 4.36 | 10 nM | – |
| Cc1nn2c(C3CC3)c(C(=O)N[C@H]3CCOc4ccccc43)cnc2c1-c1cc(Cl)cc(C(F)(F)F)c1 [Example 465] | – | < 0.1 µg/mL | < 0.1 µg/mL | < 0.1 µg/mL | 5.11 | 10 nM | – |
| Cc1nn2c(C3CC3)c(C(=O)N[C@H]3CCOc4ccccc43)cnc2c1-c1cnn(CC2CC2)c1 [Example 470] | > 80% | < 10 µg/mL | – | – | 2.92 | 7.94 nM | – |
| Cc1nn2c(N3CCOCC3)c(C(=O)N[C@H]3CCOc4ccccc43)cnc2c1-c1cc(Cl)cc(Cl)c1 [Example 516] | > 80% | < 0.1 µg/mL | < 0.1 µg/mL | – | 3.99 | 5.01 nM | > 80% |
| Cc1nn2c(N3CCOCC3)c(C(=O)N[C@H]3CCOc4ccccc43)cnc2c1-c1cccc(F)c1F [Example 534] | – | < 0.1 µg/mL | < 0.1 µg/mL | < 0.1 µg/mL | 4.32 | 3.16 nM | – |
| Cc1nn2c(N3CCOCC3)c(C(=O)N[C@H]3CCOc4ccccc43)cnc2c1-c1c(F)ccc(F)c1F [Example 535] | – | < 0.1 µg/mL | < 0.1 µg/mL | < 0.1 µg/mL | 3.29 | 2.51 nM | – |
